Reference: patent US4396615A, “Method of treating androgen-related disorders” (Duke University, priority 1981, dated 1983)
Values joined by “and” are separate entries in the source; they are usually repeats but may differ in a detail not shown here. Identical values can stand only once.

Tests used:
5α-reductase [1] = experiment: 5α-reductase assay of Moore and Wilson, with or without preincubation of enzyme with inhibitor and NADPH; type: biochemical; settings: for potency as inhibitor of the enzyme relative to progesterone: assay of Moore and Wilson; for Picomol Testosterone reduced/mg protein in 45 min + SEM: assay 45 min: inhibitor 5 × 10^-8, testosterone 5 × 10^-8, NADPH 5 × 10^-4 M; for manner of combination with / inactivation of the enzyme: in the presence of the co-factor NADPH; for Picomol Testosterone Reduced/mg protein in 45 min: assay 45 min: progesterone 5 × 10^-8, NADPH 5 × 10^-4, testosterone 5 × 10^-8
Description: Employing the assay of R. J. Moore and J. D. Wilson [Methods in Enzymology, Vol. XXXVI, Academic Press, N.Y., Ed. W. O'Malley and G. Hardman, p.

5α-reductase [2] = settings: well-known, prior art; cited from earlier work
sebum secretion = settings: topical administration of a 0.5% solution in aqueous ethanol; cited from earlier work
[3] = tested on: 5α-reductase in cell-culture preparations of human prostate; settings: cited from earlier work
5α-reductase [4] = settings: preparations of human benign prostatic hypertrophic tissue; cited from earlier work

SMILES	potency as inhibitor of the enzyme relative to progesterone (5α-reductase [1])	Picomol Testosterone reduced/mg protein in 45 min + SEM (5α-reductase [1]; A: preincubation 15 min with inhibitor 5 × 10^-7 M and NADPH 6 × 10^-5 M)	Picomol Testosterone reduced/mg protein in 45 min + SEM (5α-reductase [1]; B: preincubation 15 min with inhibitor 0 and NADPH 6 × 10^-5 M)	Picomol Testosterone reduced/mg protein in 45 min + SEM (5α-reductase [1]; C: preincubation 15 min with inhibitor 0 and NADPH 0)	Picomol Testosterone reduced/mg protein in 45 min + SEM (5α-reductase [1]; D: preincubation 15 min with inhibitor 5 × 10^-7 M and NADPH 0)	Picomol Testosterone reduced/mg protein in 45 min + SEM (5α-reductase [1]; F: no preincubation)	Ki (5α-reductase [1]; first phase, from plot of t1/2 against 1/[Inhibitor] (FIG. 2), read-out: Ki of reversible combination of enzyme and inhibitor) [µM]	manner of combination with / inactivation of the enzyme (5α-reductase [1])	time course of inactivation of the enzyme (5α-reductase [1]; incubation of enzyme with NADPH and inhibitor (FIG. 1))	enzyme activity lost (5α-reductase [1]; preincubation of enzyme with compound and NADPH, diluted tenfold, then assayed) [%]	rate constant of irreversible combination (kcat) (5α-reductase [1]; second phase, enzyme-inhibitor complex rendered inactive) [s⁻¹]	Picomol Testosterone Reduced/mg protein in 45 min (5α-reductase [1]; 1: preincubation 15 min with progesterone 0 and NADPH 6 × 10^-5)	Picomol Testosterone Reduced/mg protein in 45 min (5α-reductase [1]; 2: preincubation 15 min with progesterone 5 × 10^-7 and NADPH 6 × 10^-5)	Picomol Testosterone Reduced/mg protein in 45 min (5α-reductase [1]; 4: no preincubation)	enzyme inactivation on preincubation (5α-reductase [1]; preincubation of enzyme with compound and NADPH)	type of inhibition of the enzyme (5α-reductase [2])	males with acne showing an important decrease in sebum secretion (sebum secretion)	effect on growth of the tissue [3]	inhibition of the enzyme in cell-culture preparations of human prostate [3]	conversion of testosterone to dihydrotestosterone (5α-reductase [4])
C=C1C[C@H]2[C@@H]3CC[C@H](C(C)=O)[C@@]3(C)CC[C@@H]2[C@@]2(C)CCC(=O)C=C12 [6-methyleneprogesterone]	equipotent with progesterone	–	–	–	–	–	–	–	–	–	–	–	–	–	–	–	–	–	–	–
C=C1C[C@@H]2[C@H](CC[C@@]3(C)[C@H]2CC[C@]3(OC(C)=O)C(C)=O)[C@@]2(C)CCC(=O)C=C12 [17α-acetoxy-6-methyleneprogesterone]	equipotent with progesterone	0.71 ± 0.018 Picomol Testosterone reduced/m	3.0 ± 0.26 Picomol Testosterone reduced/m	2.83 ± 0.09 Picomol Testosterone reduced/m	2.63 ± 0.18 Picomol Testosterone reduced/m	3.14 ± 0.20 Picomol Testosterone reduced/m	1.25	irreversible manner	pseudo first-order kinetics	75	0.0048	–	–	–	–	–	–	–	–	–
CC(=O)[C@H]1CC[C@H]2[C@@H]3CCC4=CC(=O)CC[C@]4(C)[C@H]3CC[C@]12C [progesterone]	–	–	–	–	–	–	–	competitive and reversible	–	–	–	3.91 Picomol Testosterone Reduced/m and 3.41 Picomol Testosterone Reduced/m	3.91 Picomol Testosterone Reduced/m and 3.79 Picomol Testosterone Reduced/m	3.66 Picomol Testosterone Reduced/m and 3.54 Picomol Testosterone Reduced/m	does not result in enzyme inactivation	reversible and competitive inhibitor	45/53	inhibiting growth of the tissue	strongly inhibits the enzyme	Inhibition of the conversion of testosterone to dihydrotestosterone
